{"source": "patent US20200172966A1", "about": "(YAMAGUCHI UNIVERSITY, priority 2015, published 2020)", "assay": "incidence of side effect (hematologic toxicity) by single nucleotide polymorphism genotype in Japanese patients with colon cancer who had received irinotecan", "type": "in vivo, human", "method": "By using TaqMan SNP Assays Human (manufactured by Applied Biosystems, Inc.) and LightCycler (R) 480 Probe Master (manufactured by Roche Diagnostics, Inc.), Universal ProbeLibrary (manufactured by Roche Diagnostics, Inc.), and LightCycler 480 System II (manufactured by Roche Diagnostics, Inc.), 10 ng of genomic DNA was subjected to genotyping. After incubation at 95° C. for 10 min, the sample was subjected to PCR amplification with 55 cycles for rs1980576, rs2272761, and rs9425343, 45 cycles for rs12577167, rs7265854, and rs1135640, or 40 cycles for rs1547 (1 cycle consisted of 92° C. for 15 sec and 60° C. for 60 sec). The fluorescence emitted from the PCR products were measured.\nThe “Odds ratio” in Table 3 refers to an odds ratio indicating the occurrence of a side effect as calculated using a Fisher's exact test on a single nucleotide polymorphism being homozygous for a wild-type or homozygous for a variant type.\nThe term (P value/C.-A.) in Table 4 is the same as in Table 2. […] The term “Odds ratio” in Table 5 is the same as in Table 3.", "key": {"[1]": {"conditions": "N = 67, homozygous UGT1A1*28, homozygous *6, compound heterozygous excluded (Table 2), ACOX1 rs1135640 C/C"}, "[2]": {"conditions": "N = 67, homozygous UGT1A1*28, homozygous *6, compound heterozygous excluded (Table 2), ACOX1 rs1135640 C/G"}, "[3]": {"conditions": "N = 67, homozygous UGT1A1*28, homozygous *6, compound heterozygous excluded (Table 2), ACOX1 rs1135640 G/G"}, "[4]": {"conditions": "N = 67, homozygous UGT1A1*28, homozygous *6, compound heterozygous excluded (Table 3), ACOX1 rs1135640 G/G"}, "[5]": {"conditions": "N = 67, homozygous UGT1A1*28, homozygous *6, compound heterozygous excluded, ACOX1 rs1135640 C/C, C/G"}, "[6]": {"conditions": "N = 67, homozygous UGT1A1*28, homozygous *6, compound heterozygous excluded, APCDD1L rs1980576 A/A"}, "[7]": {"conditions": "N = 67, homozygous UGT1A1*28, homozygous *6, compound heterozygous excluded, APCDD1L rs1980576 A/A, A/G"}, "[8]": {"conditions": "N = 67, homozygous UGT1A1*28, homozygous *6, compound heterozygous excluded, APCDD1L rs1980576 A/G, G/G"}, "[9]": {"conditions": "N = 67, homozygous UGT1A1*28, homozygous *6, compound heterozygous excluded, APCDD1L rs1980576 G/G"}, "[10]": {"conditions": "N = 67, homozygous UGT1A1*28, homozygous *6, compound heterozygous excluded, APCDD1L rs7265854 C/C"}, "[11]": {"conditions": "N = 67, homozygous UGT1A1*28, homozygous *6, compound heterozygous excluded, APCDD1L rs7265854 T/T, T/C"}, "[12]": {"conditions": "N = 67, homozygous UGT1A1*28, homozygous *6, compound heterozygous excluded, EDEM3 rs9425343 T/G, G/G"}, "[13]": {"conditions": "N = 67, homozygous UGT1A1*28, homozygous *6, compound heterozygous excluded, EDEM3 rs9425343 T/T"}, "[14]": {"conditions": "N = 67, homozygous UGT1A1*28, homozygous *6, compound heterozygous excluded, R3HCC1 rs2272761 G/A, A/A"}, "[15]": {"conditions": "N = 68, homozygous UGT1A1*28, homozygous *6, compound heterozygous excluded, APCDD1L rs1980576 A/A"}, "[16]": {"conditions": "N = 68, homozygous UGT1A1*28, homozygous *6, compound heterozygous excluded, APCDD1L rs1980576 A/G"}, "[17]": {"conditions": "N = 68, homozygous UGT1A1*28, homozygous *6, compound heterozygous excluded, APCDD1L rs1980576 G/G"}, "[18]": {"conditions": "N = 68, homozygous UGT1A1*28, homozygous *6, compound heterozygous excluded, APCDD1L rs7268854 A/A"}, "[19]": {"conditions": "N = 68, homozygous UGT1A1*28, homozygous *6, compound heterozygous excluded, APCDD1L rs7268854 A/G"}, "[20]": {"conditions": "N = 68, homozygous UGT1A1*28, homozygous *6, compound heterozygous excluded, APCDD1L rs7268854 G/G"}, "[21]": {"conditions": "N = 68, homozygous UGT1A1*28, homozygous *6, compound heterozygous excluded, CSMD2 rs474474 A/A"}, "[22]": {"conditions": "N = 68, homozygous UGT1A1*28, homozygous *6, compound heterozygous excluded, CSMD2 rs474474 A/G"}, "[23]": {"conditions": "N = 68, homozygous UGT1A1*28, homozygous *6, compound heterozygous excluded, CSMD2 rs474474 G/G"}, "[24]": {"conditions": "N = 68, homozygous UGT1A1*28, homozygous *6, compound heterozygous excluded, EDEM3 rs9425343 G/G"}, "[25]": {"conditions": "N = 68, homozygous UGT1A1*28, homozygous *6, compound heterozygous excluded, EDEM3 rs9425343 T/G"}, "[26]": {"conditions": "N = 68, homozygous UGT1A1*28, homozygous *6, compound heterozygous excluded, EDEM3 rs9425343 T/T"}, "[27]": {"conditions": "N = 68, homozygous UGT1A1*28, homozygous *6, compound heterozygous excluded, GATA2 rs2335052 A/A"}, "[28]": {"conditions": "N = 68, homozygous UGT1A1*28, homozygous *6, compound heterozygous excluded, GATA2 rs2335052 G/A"}, "[29]": {"conditions": "N = 68, homozygous UGT1A1*28, homozygous *6, compound heterozygous excluded, GATA2 rs2335052 G/G"}, "[30]": {"conditions": "N = 68, homozygous UGT1A1*28, homozygous *6, compound heterozygous excluded, MKKS rs1547 C/C"}, "[31]": {"conditions": "N = 68, homozygous UGT1A1*28, homozygous *6, compound heterozygous excluded, MKKS rs1547 C/T"}, "[32]": {"conditions": "N = 68, homozygous UGT1A1*28, homozygous *6, compound heterozygous excluded, MKKS rs1547 T/T"}, "[33]": {"conditions": "N = 68, homozygous UGT1A1*28, homozygous *6, compound heterozygous excluded, OR5112 rs12577167 A/A"}, "[34]": {"conditions": "N = 68, homozygous UGT1A1*28, homozygous *6, compound heterozygous excluded, OR5112 rs12577167 A/G"}, "[35]": {"conditions": "N = 68, homozygous UGT1A1*28, homozygous *6, compound heterozygous excluded, OR5112 rs12577167 G/G"}, "[36]": {"conditions": "N = 68, homozygous UGT1A1*28, homozygous *6, compound heterozygous excluded, R3HCC1 rs2272761 A/A"}, "[37]": {"conditions": "N = 68, homozygous UGT1A1*28, homozygous *6, compound heterozygous excluded, R3HCC1 rs2272761 G/A"}, "[38]": {"conditions": "N = 68, homozygous UGT1A1*28, homozygous *6, compound heterozygous excluded, R3HCC1 rs2272761 G/G"}}, "data": [{"compound": "CCc1c2c(nc3ccc(OC(=O)N4CCC(N5CCCCC5)CC4)cc13)-c1cc3c(c(=O)n1C2)COC(=O)[C@]3(O)CC", "note": "[irinotecan, 1,4′-Bipiperidine-1′-carboxylic acid (S)-4,11-diethyl-3,4,12,14-tetrahydro-4-hydroxy-3,14-dioxo-1H-pyrano[3′,4′:6,7]indolizino[1,2-b]quinolin-9-yl ester]", "values": [{"measurement": "irinotecan side effect observed", "setting": "68 cases considered to have a low risk of a side effect in view of the UGT1A gene polymorphisms", "result": 42.6, "unit": "%"}, {"measurement": "Toxicity No", "setting": "[1]", "result": 3}, {"measurement": "Toxicity Yes", "setting": "[1]", "result": 6}, {"measurement": "Toxicity No", "setting": "[2]", "result": 14}, {"measurement": "Toxicity Yes", "setting": "[2]", "result": 15}, {"measurement": "Toxicity No", "setting": "[3]", "result": 21}, {"measurement": "Toxicity Yes", "setting": "[3]", "result": 8}, {"measurement": "Toxicity No", "setting": "[4]", "result": 21}, {"measurement": "Toxicity Yes", "setting": "[4]", "result": 8}, {"measurement": "Toxicity No", "setting": "[5]", "result": 17}, {"measurement": "Toxicity Yes", "setting": "[5]", "result": 21}, {"measurement": "Toxicity No", "setting": "[6]", "result": 16}, {"measurement": "Toxicity Yes", "setting": "[6]", "result": 5}, {"measurement": "Toxicity No", "setting": "[7]", "result": 35}, {"measurement": "Toxicity Yes", "setting": "[7]", "result": 21}, {"measurement": "Toxicity No", "setting": "[8]", "result": 22}, {"measurement": "Toxicity Yes", "setting": "[8]", "result": 24}, {"measurement": "Toxicity No", "setting": "[9]", "result": 3}, {"measurement": "Toxicity Yes", "setting": "[9]", "result": 8}, {"measurement": "Toxicity No", "setting": "[10]", "result": 8}, {"measurement": "Toxicity Yes", "setting": "[10]", "result": 1}, {"measurement": "Toxicity No", "setting": "[11]", "result": 30}, {"measurement": "Toxicity Yes", "setting": "[11]", "result": 28}, {"measurement": "Toxicity No", "setting": "[12]", "result": 31}, {"measurement": "Toxicity Yes", "setting": "[12]", "result": 17}, {"measurement": "Toxicity No", "setting": "[13]", "result": 7}, {"measurement": "Toxicity Yes", "setting": "[13]", "result": 12}, {"measurement": "Toxicity No", "setting": "[14]", "result": 32}, {"measurement": "Toxicity Yes", "setting": "[14]", "result": 29}, {"measurement": "Toxicity No", "setting": "N = 67, homozygous UGT1A1*28, homozygous *6, compound heterozygous excluded, R3HCC1 rs2272761 G/G", "result": 6}, {"measurement": "Toxicity No", "setting": "[15]", "result": 16}, {"measurement": "Toxicity Yes", "setting": "[15]", "result": 5}, {"measurement": "Toxicity No", "setting": "[16]", "result": 20}, {"measurement": "Toxicity Yes", "setting": "[16]", "result": 16}, {"measurement": "Toxicity No", "setting": "[17]", "result": 3}, {"measurement": "Toxicity Yes", "setting": "[17]", "result": 8}, {"measurement": "Toxicity No", "setting": "[18]", "result": 13}, {"measurement": "Toxicity Yes", "setting": "[18]", "result": 13}, {"measurement": "Toxicity No", "setting": "[19]", "result": 18}, {"measurement": "Toxicity Yes", "setting": "[19]", "result": 15}, {"measurement": "Toxicity No", "setting": "[20]", "result": 8}, {"measurement": "Toxicity Yes", "setting": "[20]", "result": 1}, {"measurement": "Toxicity No", "setting": "[21]", "result": 16}, {"measurement": "Toxicity Yes", "setting": "[21]", "result": 17}, {"measurement": "Toxicity No", "setting": "[22]", "result": 18}, {"measurement": "Toxicity Yes", "setting": "[22]", "result": 8}, {"measurement": "Toxicity No", "setting": "[23]", "result": 5}, {"measurement": "Toxicity Yes", "setting": "[23]", "result": 4}, {"measurement": "Toxicity No", "setting": "[24]", "result": 10}, {"measurement": "Toxicity Yes", "setting": "[24]", "result": 3}, {"measurement": "Toxicity No", "setting": "[25]", "result": 21}, {"measurement": "Toxicity Yes", "setting": "[25]", "result": 14}, {"measurement": "Toxicity No", "setting": "[26]", "result": 8}, {"measurement": "Toxicity Yes", "setting": "[26]", "result": 12}, {"measurement": "Toxicity No", "setting": "[27]", "result": 5}, {"measurement": "Toxicity Yes", "setting": "[27]", "result": 3}, {"measurement": "Toxicity No", "setting": "[28]", "result": 20}, {"measurement": "Toxicity Yes", "setting": "[28]", "result": 10}, {"measurement": "Toxicity No", "setting": "[29]", "result": 14}, {"measurement": "Toxicity Yes", "setting": "[29]", "result": 16}, {"measurement": "Toxicity No", "setting": "[30]", "result": 20}, {"measurement": "Toxicity Yes", "setting": "[30]", "result": 8}, {"measurement": "Toxicity No", "setting": "[31]", "result": 16}, {"measurement": "Toxicity Yes", "setting": "[31]", "result": 16}, {"measurement": "Toxicity No", "setting": "[32]", "result": 3}, {"measurement": "Toxicity Yes", "setting": "[32]", "result": 5}, {"measurement": "Toxicity No", "setting": "[33]", "result": 19}, {"measurement": "Toxicity Yes", "setting": "[33]", "result": 20}, {"measurement": "Toxicity No", "setting": "[34]", "result": 14}, {"measurement": "Toxicity Yes", "setting": "[34]", "result": 8}, {"measurement": "Toxicity No", "setting": "[35]", "result": 6}, {"measurement": "Toxicity Yes", "setting": "[35]", "result": 1}, {"measurement": "Toxicity No", "setting": "[36]", "result": 22}, {"measurement": "Toxicity Yes", "setting": "[36]", "result": 21}, {"measurement": "Toxicity No", "setting": "[37]", "result": 11}, {"measurement": "Toxicity Yes", "setting": "[37]", "result": 8}, {"measurement": "Toxicity No", "setting": "[38]", "result": 6}, {"measurement": "Toxicity Yes", "setting": "[38]", "result": 0}]}]}
